For 14 compounds, Ki results are on record in ChEMBL document CHEMBL1146600, “Preparation of 7-substituted ginkgolide derivatives: potent platelet activating factor (PAF) receptor antagonists” (J Med Chem, 2003).

The structures appear in SMILES notation.

The target of the experiment is Platelet-activating factor receptor (Cavia porcellus, UniProt P21556). Put plainly: Displacement of [3H]-WEB 2086 from Platelet activating factor receptor (guinea pig) transgenic mouse muscle membrane.
Platelet-activating factor receptor, sequence (P21556 whole entry): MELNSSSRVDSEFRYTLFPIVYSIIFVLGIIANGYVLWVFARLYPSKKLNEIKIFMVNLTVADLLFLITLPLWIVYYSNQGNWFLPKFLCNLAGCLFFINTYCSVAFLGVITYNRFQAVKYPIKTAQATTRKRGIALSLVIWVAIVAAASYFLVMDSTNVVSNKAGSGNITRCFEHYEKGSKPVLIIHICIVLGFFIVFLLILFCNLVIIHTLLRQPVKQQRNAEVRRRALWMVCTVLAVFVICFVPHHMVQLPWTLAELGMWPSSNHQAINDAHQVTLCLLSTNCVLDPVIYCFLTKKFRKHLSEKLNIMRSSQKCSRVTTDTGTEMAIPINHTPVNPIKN
`C[C@@H]1C(=O)O[C@H]2[C@H](O)[C@@]34[C@H]5CC(C(C)(C)C)[C@]36[C@@H](OC(=O)[C@@H]6O)O[C@@]4(C(=O)O5)[C@@]12O` (single isomer, unassigned) [GINKOLIDE B] had a Ki of 880 nM.
As for `C[C@@H]1C(=O)OC2[C@H](O)C34C5OC(=O)C3(OC3OC(=O)[C@H](O)C34[C@@H](C(C)(C)C)[C@H]5N)[C@]21O` (some centres undefined), the Ki was found to be 8640 nM.
`C[C@@H]1C(=O)OC2[C@H](O)C34C5OC(=O)C3(OC3OC(=O)[C@H](O)C34[C@@H](C(C)(C)C)[C@H]5F)[C@]21O` (some centres undefined) showed a Ki of 990 nM.
In turn, `CC(=O)O[C@H]1C2OC(=O)C34OC5OC(=O)[C@H](O)C5([C@H]1C(C)(C)C)C23[C@@H](O)C1OC(=O)[C@@H](C)[C@@]14O` (some centres undefined) displayed a Ki of 7840 nM.
Then `C[C@@H]1C(=O)OC2[C@H](O)C34C5OC(=O)C3(OC3OC(=O)[C@H](OCc6ccccc6)C34[C@@H](C(C)(C)C)[C@@H]5O)[C@]21O` (some centres undefined), with 1670 nM.
In turn, `C[C@@H]1C(=O)O[C@H]2[C@H](O)[C@]34[C@@H]5OC(=O)[C@]3(OC3OC(=O)[C@H](O)C34C(C(C)(C)C)[C@@H]5O)[C@@]12O` (single isomer, unassigned) had a Ki of 12600 nM.
The compound `C[C@@H]1C(=O)OC2[C@H](O)C34C5OC(=O)C3(OC3OC(=O)[C@H](OCc6ccccc6)C34[C@@H](C(C)(C)C)[C@H]5O)[C@]21O` (some centres undefined) had a Ki of 600 nM.
`CN[C@H]1C2OC(=O)C34OC5OC(=O)[C@H](O)C5([C@H]1C(C)(C)C)C23[C@@H](O)C1OC(=O)[C@@H](C)[C@@]14O` (some centres undefined) had a Ki of 610 nM.
The figure for `C[C@@H]1C(=O)OC2[C@H](O)C34C5C[C@H](C(C)(C)C)C36C(OC(=O)[C@@H]6OCc3ccccc3)OC4(C(=O)O5)[C@]21O` (some centres undefined) is 120 nM; for `C[C@@H]1C(=O)O[C@H]2[C@H](O)[C@]34[C@@H]5OC(=O)[C@]3(OC3OC(=O)[C@H](O)C34C(C(C)(C)C)[C@H]5O)[C@@]12O` (single isomer, unassigned) it is 4260 nM.
Consider `C[C@@H]1C(=O)OC2[C@H](O)C34C5OC(=O)C3(OC3OC(=O)[C@H](O)C34[C@@H](C(C)(C)C)[C@H]5N=[N+]=[N-])[C@]21O` (some centres undefined), for which the Ki worked out at 550 nM.
The figure for `CCN[C@H]1C2OC(=O)C34OC5OC(=O)[C@H](O)C5([C@H]1C(C)(C)C)C23[C@@H](O)C1OC(=O)[C@@H](C)[C@@]14O` (some centres undefined) is 1620 nM; for `C[C@@H]1C(=O)OC2[C@H](O)C34C5OC(=O)C3(OC3OC(=O)[C@H](O)C34[C@@H](C(C)(C)C)[C@H]5Cl)[C@]21O` (some centres undefined) it is 110 nM.
The compound `C[C@@H]1C(=O)OC2[C@H](O)C34C5OC(=O)C3(OC3OC(=O)[C@H](OCc6ccccc6)C34[C@@H](C(C)(C)C)[C@H]5F)[C@]21O` (some centres undefined) displayed a Ki of 100 nM.
